# Measured values taken from paper PMC11212140, “Molecular Bidents with Two Electrophilic Warheads as a New Pharmacological Modality” (ACS Central Science, 2024).
# Key:
# [1] = system: T1, PLK1; test: KiNativ profiling in H3255 cells; assay type: cell-based, human; conditions: 2.5 µM
# T1 construct: purchased ActivX Biosciences (KiNativ)
# Experimental: (§1) treatment. Cell viability was determined by using CellTiter-Glo (Promega #G7571) according to the manufacturer’s instructions, measuring luminescence using an Envision plate-reader (PerkinElmer Inc.). Dose-response curves were generated using non-linear regression curve fit in GraphPad Prism 9.2.0(GraphPad Software).
# (§2) Cellular target engagement assays
# (§3) After 6 hours treatment, cells were pelleted, washed with PBS once and lysed with IP lysis buffer (25mMTris-HCl pH 7.4, 150mM NaCl, 1 mM EDTA, 1% NP-40 and 5% glycerol) (Thermo Fisher Scientific, Cat#87788) containing protease/phosphatase inhibitor cocktail (Roche). The protein concentrations were measured by BCA analysis (Pierce). Cell lysates were incubated with 1 μM of biotin conjugated probe (bio-Osimertinib or bio-ZNL-0013) at 4 ℃ overnight, and incubated for 3 more hours at room temperature. Lysates with probe were then incubated with streptavidin beads (Thermo Fisher, #20349) for 2 hours at 4 ℃. The protein-probe complexes on the beads were then subjected to immunoblotting.
# (§4) H3255 cells were plated with 6.5x10^6 per condition in fresh media in 15 cm plates and treated the 80% confluency for 2 hours with DMSO or 2.5 μM of ZNL-0056. To harvest cells, plates were washed 3 times with cold PBS, then collected by scraping into 4 mL of cold PBS containing protease and phosphatase inhibitors. Cells were pelleted by centrifugation at 1350 g at 4 ℃ for 5 minutes and immediately frozen in liquid nitrogen. The frozen samples were sent to ActivX Biosciences (La Jolla, CA) for the remainder of the KiNativ profiling experiment4.
# (§5) Protein expression and purification
# (§6) Human EGFR kinase domain (residues 696-1022) with T790M and V948R mutations was cloned with an N-terminal, protease cleavable His -GST tag. Recombinant protein was expressed in SF9 insect cells using baculovirus generated from the pFastBac system (Thermo Fisher) .
# (§7) Briefly, cells at a density of ~2x10^6 cells/mL were infected with 1% (v/v) virus stock and grown for ~72 hours before harvesting and freezing the cell pellet . Infected cells were lysed in buffer A (50 mM Tris pH 8.0, 500 mM NaCl, 5% glycerol, 0.5 mM Tris(2-carboxyethyl)phosphine [TCEP]), ultracentrifuged at >200,000 rcf for 1 h, and the supernatant flo wed through Ni-NTA resin by gravity. The resin was washed with buffer A supplemented with 40 mM imidazole by […]
# [2] = system: T2, GSK3A; test: KiNativ profiling in H3255 cells; assay type: cell-based, human; conditions: 2.5 µM; Lys2; DIKPQNLLVDPDTAVLK
# T2 construct: purchased ActivX Biosciences (KiNativ)
# Experimental: as §1, §2, §3, §4, §5, §6, §7
# [3] = system: T3, FRK; test: KiNativ profiling in H3255 cells; assay type: cell-based, human; conditions: 2.5 µM
# T3 construct: purchased ActivX Biosciences (KiNativ)
# Experimental: as §1, §2, §3, §4, §5, §6, §7
# [4] = system: T4, MAP3K6; test: KiNativ profiling in H3255 cells; assay type: cell-based, human; conditions: 2.5 µM; Lys2; DIKGDNVLINTFSGLLK
# T4 construct: purchased ActivX Biosciences (KiNativ)
# Experimental: as §1, §2, §3, §4, §5, §6, §7
# [5] = system: MARK3, MARK4; test: KiNativ profiling in H3255 cells; assay type: cell-based, human; conditions: 2.5 µM; Lys1; EVAIKIIDK
# Experimental: as §1, §2, §3, §4, §5, §6, §7
# [6] = system: T5, TAO2; test: KiNativ profiling in H3255 cells; assay type: cell-based, human; conditions: 2.5 µM; Lys2; DVKAGNILLSEPGLVK
# T5 construct: purchased ActivX Biosciences (KiNativ)
# Experimental: as §1, §2, §3, §4, §5, §6, §7
# [7] = system: PKCa, PKCg; test: KiNativ profiling in H3255 cells; assay type: cell-based, human; conditions: 2.5 µM; Other; NLIPMDPNGLSDPYVKLK
# Experimental: as §1, §2, §3, §4, §5, §6, §7
# [8] = system: T6, LKB1; test: KiNativ profiling in H3255 cells; assay type: cell-based, human; conditions: 2.5 µM; Lys2; DIKPGNLLLTTGGTLK
# T6 construct: purchased ActivX Biosciences (KiNativ)
# [9] = system: H3255 cells; test: Cell viability assay (CellTiter-Glo); assay type: cell-based; conditions: Homo sapiens, NCI-H3255, 72 h of treatment
# Experimental: (A) Dose–response curves for ZNL-0056 and osimertinib in H3255 cells following 72 h of treatment. Cell viability was assessed with CellTiter-Glo. Data are presented as the mean ± SEM (n = 4). Representative data from three independent experiments are shown. (B) Immunoblot assessment of the effect of ZNL-0056 on EGFR signaling pathway in H3255 cells after 6 h treatment. Representative blots from two independent experiments are shown. […] TEXT PRINTED IN THE PICTURE: (A) ZNL-0056: H3255: IC50 (nM): 471.3 | (A) Osimertinib: H3255: IC50 (nM): 27.76 […]
# For infection of Ba/F3 cells, 2.5 mL of viral supernatant and 8 μg/mL polybrene was added to 2.5 million cells per well in six-well plates. […]
# Cells were lysed in RIPA buffer (150 mM NaCl, 1.0% IGEPAL® CA-630, 0.5% sodium deoxycholate, 0.1% SDS, 50 mM Tris, pH 8.0) (Sigma, Cat# R0278) with protease inhibitor and phosphatase inhibitor (Roche). The protein concentrations were measured by BCA analysis (Thermo Fisher Scientific, Cat # PI23225). […]
# or IRDye 680RD goat anti-Mouse IgG (LICOR Biosciences , Cat # 926-68070) secondary antibodies at room temperature for 1 hour. The membranes were detected on Odyssey CLx system. […]
# treatment. Cell viability was determined by using CellTiter-Glo (Promega #G7571) according to the manufacturer’s instructions, measuring luminescence using an Envision plate-reader (PerkinElmer Inc.). […]
# [10] = Lys1, LGSGQFGEVWEGLWNNTTPVAVKTLKPGSMDPNDFLR
SMILES,"Inhibition ([1]; Lys1, CFEISDADTKEVFAGKIVPK)","Inhibition ([1]; Lys2, DLKLGNLFLNEDLEVK)",Inhibition [2],"Inhibition ([3]; Activation Loop, HEIKLPVK)","Inhibition [3, 10]",Inhibition [4],Inhibition [5],Inhibition [6],Inhibition [7],Inhibition [8],IC50 [9]
"C=CC(=O)Nc1cc(Nc2nccc(-c3cn(C)c4ccccc34)n2)c(OC)cc1N(C)CCN(C)C [Osimertinib, osimertinib, reference compound]",9.6%,25.0%,-5.2%,-27.9%,12.8%,-16.3%,-12.5%,8.2%,-21.6%,-3.9%,27.8 nM
C=CC(=O)Nc1cc(C(=O)Nc2nc3cccc(C)c3n2[C@@H]2CCCCN(C(=O)C=C)C2)cs1 [ZNL-0056],11.9%,-1.2%,11.5%,-77.6%,7.6%,20.5%,16.2%,-4.5%,-17.5%,0.756%,471 nM
